Measured values: patent US10206394B2, “Herbicidal compounds” (Syngenta Participations AG, priority 2014, dated 2019)
Where two headings read alike, the source gives them in different places.

Assays:
Experiment in all cases: Glasshouse assay for herbicidal activity (pre- and post-emergence), percentage phytotoxicity
Format in all cases: in vivo
Avena fatua (AVEFA) = conditions: Avena fatua
Procedure, shortened: (§1)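 Potted test plants in standard soil received the compound pre-emergence (day 1) or post-emergence (about day 12). Evaluation: visual damage score from 0% (none) to 100% (total), 15 days after application post-emergence, 20 days pre-emergence.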

[1] = tested on: Echinochloa crus-galli (ECHCG); conditions: Echinochloa crus-galli
Procedure, shortened: as §1

[2] = tested on: Alopecurus myosuroides (ALOMY); conditions: Alopecurus myosuroides
Procedure, shortened: as §1

Lolium perenne (LOLPE) = conditions: Lolium perenne
Procedure, shortened: as §1

[3] = post-emergence, 360 h, Rate 250 g/ha, post-emergence, assessed visually 15 DAA, 100%=total damage, 0%=no damage, read-out: Post-emergence herbicidal activity (percentage phytotoxicity) AVEFA POST
[4] = pre-emergence, 480 h, Rate 250 g/ha, pre-emergence, assessed visually 20 DAA, 100%=total damage, 0%=no damage, read-out: Pre-emergence herbicidal activity (percentage phytotoxicity) AVEFA PRE
[5] = post-emergence, 360 h, Rate 250 g/ha, post-emergence, assessed visually 15 DAA, 100%=total damage, 0%=no damage, read-out: Post-emergence herbicidal activity (percentage phytotoxicity) ECHCG POST
[6] = pre-emergence, 480 h, Rate 250 g/ha, pre-emergence, assessed visually 20 DAA, 100%=total damage, 0%=no damage, read-out: Pre-emergence herbicidal activity (percentage phytotoxicity) ECHCG PRE
[7] = post-emergence, 360 h, Rate 250 g/ha, post-emergence, assessed visually 15 DAA, 100%=total damage, 0%=no damage, read-out: Post-emergence herbicidal activity (percentage phytotoxicity) ALOMY POST
[8] = pre-emergence, 480 h, Rate 250 g/ha, pre-emergence, assessed visually 20 DAA, 100%=total damage, 0%=no damage, read-out: Pre-emergence herbicidal activity (percentage phytotoxicity) ALOMY PRE
[9] = post-emergence, 360 h, Rate 250 g/ha, post-emergence, assessed visually 15 DAA, 100%=total damage, 0%=no damage, read-out: Post-emergence herbicidal activity (percentage phytotoxicity) LOLPE POST
[10] = pre-emergence, 480 h, Rate 250 g/ha, pre-emergence, assessed visually 20 DAA, 100%=total damage, 0%=no damage, read-out: Pre-emergence herbicidal activity (percentage phytotoxicity) LOLPE PRE
[11] = post-emergence, 360 h, Rate 250 g/ha, post-emergence, visual assessment 15 DAA, 100%=total damage, 0%=no damage, read-out: Post-emergence herbicidal activity (percentage phytotoxicity) AVEFA POST
[12] = pre-emergence, 480 h, Rate 250 g/ha, pre-emergence, visual assessment 20 DAA, 100%=total damage, 0%=no damage, read-out: Pre-emergence herbicidal activity (percentage phytotoxicity) AVEFA PRE
[13] = post-emergence, 360 h, Rate 250 g/ha, post-emergence, visual assessment 15 DAA, 100%=total damage, 0%=no damage, read-out: Post-emergence herbicidal activity (percentage phytotoxicity) ECHCG POST
[14] = pre-emergence, 480 h, Rate 250 g/ha, pre-emergence, visual assessment 20 DAA, 100%=total damage, 0%=no damage, read-out: Pre-emergence herbicidal activity (percentage phytotoxicity) ECHCG PRE
[15] = post-emergence, 360 h, Rate 250 g/ha, post-emergence, visual assessment 15 DAA, 100%=total damage, 0%=no damage, read-out: Post-emergence herbicidal activity (percentage phytotoxicity) ALOMY POST
[16] = pre-emergence, 480 h, Rate 250 g/ha, pre-emergence, visual assessment 20 DAA, 100%=total damage, 0%=no damage, read-out: Pre-emergence herbicidal activity (percentage phytotoxicity) ALOMY PRE
[17] = post-emergence, 360 h, Rate 250 g/ha, post-emergence, visual assessment 15 DAA, 100%=total damage, 0%=no damage, read-out: Post-emergence herbicidal activity (percentage phytotoxicity) LOLPE POST
[18] = pre-emergence, 480 h, Rate 250 g/ha, pre-emergence, visual assessment 20 DAA, 100%=total damage, 0%=no damage, read-out: Pre-emergence herbicidal activity (percentage phytotoxicity) LOLPE PRE

| Structure (SMILES) | pest or weed control at 250 g/ha (Avena fatua (AVEFA); [3]) | pest or weed control at 250 g/ha (Avena fatua (AVEFA); [4]) | pest or weed control at 250 g/ha [1, 5] | pest or weed control at 250 g/ha [1, 6] | pest or weed control at 250 g/ha [2, 7] | pest or weed control at 250 g/ha [2, 8] | pest or weed control at 250 g/ha (Lolium perenne (LOLPE); [9]) | pest or weed control at 250 g/ha (Lolium perenne (LOLPE); [10]) | pest or weed control at 250 g/ha (Avena fatua (AVEFA); [11]) | pest or weed control at 250 g/ha (Avena fatua (AVEFA); [12]) | pest or weed control at 250 g/ha [1, 13] | pest or weed control at 250 g/ha [1, 14] | pest or weed control at 250 g/ha [2, 15] | pest or weed control at 250 g/ha [2, 16] | pest or weed control at 250 g/ha (Lolium perenne (LOLPE); [17]) | pest or weed control at 250 g/ha (Lolium perenne (LOLPE); [18]) | other results |
| --- | --- | --- | --- | --- | --- | --- | --- | --- | --- | --- | --- | --- | --- | --- | --- | --- | --- |
| Cc1cc(-c2ncc(Cl)cc2F)cc(C)c1C1C(=O)CC(CC(=O)NCc2cccc(C(F)(F)F)c2)C1=O (stereo not drawn) [Compound A120] | 100% | 90% | 100% | 100% | 100% | 80% | 100% | 80% |  |  |  |  |  |  |  |  |  |
| Cc1ccc(CNC(=O)CC2CC(=O)C(c3c(C)cc(-c4ccc(Cl)cn4)cc3C)C2=O)cc1 (stereo not drawn) [Compound B375] |  |  |  |  |  |  |  |  | 70% | 70% | 100% | 90% | 40% | 60% | 80% | 80% |  |
| COCC(C)(C)NC(=O)CC1CC(=O)C(c2c(C)cc(-c3ncc(Cl)cn3)cc2C)C1=O (stereo not drawn) [Compound B344] |  |  |  |  |  |  |  |  | 100% | 80% | 100% | 100% | 100% | 90% | 90% | 80% |  |
| CCc1cc(C)cc(C)c1C1C(=O)CC(CC(N)=O)C1=O (stereo not drawn) [Compound B171] |  |  |  |  |  |  |  |  |  |  |  |  |  |  |  |  | pest or weed control at 250 g/ha (Avena fatua (AVEFA); post-emergence, 360 h, POST-emergence, rate 250 g/ha, visual score 15 DAA (100%=total damage, 0%=no damage), read-out: Post-emergence herbicidal activity (percentage phytotoxicity) AVEFA POST): 100%; pest or weed control at 250 g/ha (Avena fatua (AVEFA); pre-emergence, 480 h, PRE-emergence, rate 250 g/ha, visual score 20 DAA (100%=total damage, 0%=no damage), read-out: Pre-emergence herbicidal activity (percentage phytotoxicity) AVEFA PRE): 100%; pest or weed control at 250 g/ha ([1]; post-emergence, 360 h, POST-emergence, rate 250 g/ha, visual score 15 DAA (100%=total damage, 0%=no damage), read-out: Post-emergence herbicidal activity (percentage phytotoxicity) ECHCG POST): 100%; pest or weed control at 250 g/ha ([1]; pre-emergence, 480 h, PRE-emergence, rate 250 g/ha, visual score 20 DAA (100%=total damage, 0%=no damage), read-out: Pre-emergence herbicidal activity (percentage phytotoxicity) ECHCG PRE): 100%; pest or weed control at 250 g/ha ([2]; post-emergence, 360 h, POST-emergence, rate 250 g/ha, visual score 15 DAA (100%=total damage, 0%=no damage), read-out: Post-emergence herbicidal activity (percentage phytotoxicity) ALOMY POST): 100%; pest or weed control at 250 g/ha ([2]; pre-emergence, 480 h, PRE-emergence, rate 250 g/ha, visual score 20 DAA (100%=total damage, 0%=no damage), read-out: Pre-emergence herbicidal activity (percentage phytotoxicity) ALOMY PRE): 100%; pest or weed control at 250 g/ha (Lolium perenne (LOLPE); post-emergence, 360 h, POST-emergence, rate 250 g/ha, visual score 15 DAA (100%=total damage, 0%=no damage), read-out: Post-emergence herbicidal activity (percentage phytotoxicity) LOLPE POST): 90%; pest or weed control at 250 g/ha (Lolium perenne (LOLPE); pre-emergence, 480 h, PRE-emergence, rate 250 g/ha, visual score 20 DAA (100%=total damage, 0%=no damage), read-out: Pre-emergence herbicidal activity (percentage phytotoxicity) LOLPE PRE): 100% |
| Cc1cc(C)c(C2C(=O)CC(CC(=O)N3CCCC3)C2=O)c(C)c1 (stereo not drawn) [Compound A162] | 90% | 70% | 90% | 100% | 90% | 70% | 100% | 100% |  |  |  |  |  |  |  |  |  |
| C#CCNC(=O)CC1CC(=O)C(c2c(C)cc(C#CC)cc2C)C1=O (stereo not drawn) [Compound A28] | 100% | 100% | 100% | 90% | 100% | 100% | 100% | 90% |  |  |  |  |  |  |  |  |  |
